Assay results taken from patent US7347984B2, “Mammalian agmatinase inhibitory substance” (Jackson State University, priority 2004, dated 2008).
Structures can show the parent of a compound that is named as a salt.

How the values were obtained:
[1] = biological target: T1, rat iNOS (inducible NOS) (Rattus norvegicus, UniProt Q06518); assay: NOS activity, [3H]arginine to [3H]citrulline conversion, iNOS; type: biochemical; conditions: Conc = 1 mM
T1 construct: purchased Cayman, Ann Arbor, Mich
Experimental: (§1) NOS activity was measured by monitoring the conversion of [^3H]arginine to [^3H]citrulline (Bret et al. 1990) using three commercially available isoforms of rat NOS: nNOS (neuronal NOS) (602 units/ml, 14.9 mg/ml), iNOS (inducible NOS) (249.7 units/ml, 21.1 mg/ml), and eNOS (epithelial NOS) (30 units/ml, 14.6 mg/ml) (Cayman, Ann Arbor, Mich.). Neuronal NOS and iNOS were diluted 1:10, while eNOS was used directly without dilution. Unless otherwise indicated, each tube was incubated at 37° C. for 60 minutes. Assay buffer contained 50 mM Tris-HCl, pH7.4, 2 mM CaCl2, 1 mM NADPH, 10 mM BH4, 5 mM FAD, 5 mM FMN, and 10 mg/ml calmodulin plus radioactive precursor. After incubation, the assay reaction was halted by addition of 400 μl of buffer containing 5 mM EDTA and 50 mM HEPES. Equilibrated resin ([…], Dowex AG50WX-8 (Na^+ form) was added and the reaction mixture was transferred to spin cups and into cup holders. The mixture was passed through the Dowex AG50WX-8 resin and the filtrate collected in a spin cup. NOS activity was determined by counting the radioactivity in the flow-through (unbound) fraction. Each assay was measured in triplicate.
(§2) QSAR were studied by ab initio Hartree-Fock calculations with the Gaussian 94 computer program (Frisch et al. 1995). Based on the optimized geometry and van der Waals radius of each atom, calculations were performed with BlogP and BlogW programs (Bodor et al. 1989, 1992A, and 1992B) to determine molecular surfaces, volumes, ovalities, partition coefficients, and water solubilities. Linear combinations of these calculated descriptors were then fitted to the observed enzyme activities. The observed activities were the remaining percentage of rat agmatinase activity at 0.5 mM of each compound, the remaining percentage of rat NOS isozyme activity at 1 mM of each compound, and the remaining percentage of rat brain NMDA receptor binding at 0.1 mM of each compound.

[2] = biological target: T2, rat eNOS (epithelial NOS) (Rattus norvegicus, UniProt Q62600); assay: NOS activity, [3H]arginine to [3H]citrulline conversion, eNOS; type: biochemical; conditions: Conc = 1 mM
T2 construct: purchased Cayman, Ann Arbor, Mich
Experimental: as §1, §2

[3] = biological target: T3, rat nNOS (neuronal NOS) (Rattus norvegicus, UniProt P29476); assay: NOS activity, [3H]arginine to [3H]citrulline conversion, nNOS; type: biochemical; conditions: Conc = 1 mM
T3 construct: purchased Cayman, Ann Arbor, Mich
Experimental: as §1, §2

[4] = system: rat agmatinase; assay: Agmatinase activity assay ([14C]-agmatine hydrolysis); type: biochemical; conditions: for Agmatinase activity remaining (%): Conc = 0.5 mM; for Activity for inhibiting agmatinase, in words: among the 14 test compounds
Experimental: Agmatinase activity was measured by the method of Satishchandran and Boyle (1986) as detailed in Sastre et al. (1996). The assay is based on the hydrolysis of guanido [^14C]-agmatine to [^14C]-urea and putrescine, and subsequent trapping of [^14C]—CO2 from the labeled urea, by the addition of urease. Assays were carried out for 30 minutes at 37° C. in 300 μl of sample containing 100 mM HEPES, pH 7.8, 4 mM MgSO4, 1 mM dithiothreitol, 10 mM L-agmatine, 7 μM [^14C]-agmatine and 0.06 units of urease. Release of [^14C]—CO2 from [^14C]-urea was measured by trapping the [^14C]—CO2 in filter paper wicks saturated with benzethonium hydroxide. The reaction was stopped by injection of 40% trichloroacetic acid into the reaction chamber and the filters transferred to mini-vials containing 5 mL CYTOSCINT® cocktail (ICN Biomedicals), and counted for radioactivity by liquid scintillation spectrometry using a Beckman model LS 5801 scintillation counter.
as §2

[5] = system: rat brain NMDA receptor; assay: [3H]-MK801 binding assay in rat brain membranes; conditions: Conc = 0.1 mM
Experimental: The binding of [^3H]-MK801 to NMDA (N-methyl-D-aspartate) receptors was measured in rat brain membranes as described in Renolds et al. (1990). Briefly, the membranes were incubated in HEPES buffer (pH 7.4) containing 0.4 nM [^3H]-MK801, 100 μM glutamate, and 30 μM glycine for 1 hour at 25° C. The binding was terminated by rapid filtration over glass fiber filters and radioactivity counted. Nonspecific binding was defined using 50 μM unlabelled MK801.
QSAR were studied by ab initio Hartree-Fock calculations with the Gaussian 94 computer program (Frisch et al. 1995). Based on the optimized geometry and van der Waals radius of each atom, calculations were performed with BlogP and BlogW programs (Bodor et al. 1989, 1992A, and 1992B) to determine molecular surfaces, volumes, ovalities, partition coefficients, and water solubilities. Linear combinations of these calculated descriptors were then fitted to the observed enzyme activities.

remaining activity at 1000 µM [1]	remaining activity at 1000 µM [2]	remaining activity at 1000 µM [3]	Compound	Activity Remaining (%) iNOS [1]	Activity Remaining (%) eNOS [2]	Activity Remaining (%) nNOS [3]	Agmatinase activity remaining (%) [4]	Activity for inhibiting agmatinase, in words [4]	3H-MK801 Binding Remaining (%) [5]
1%	30%	20%	N=C(N)NN [Amino guanidine, reference compound]	–	–	–	53%	–	90.6%
37.8%	83.4%	9.8%	NC(N)=NCCCCN=C(N)N [Arcaine sulfate, reference compound]	–	–	–	29.5%	–	45.1%
7%	67.4%	4.2%	C=C[C@](N)(CCCNC(=N)N)C(=O)O (racemic) [Alpha-Vinylarginine]	–	–	–	52.0%	–	99.7%

The remaining lines, values behind:

Compound	remaining activity at 1000 µM [1]	remaining activity at 1000 µM [2]	remaining activity at 1000 µM [3]	Activity Remaining (%) iNOS [1]	Activity Remaining (%) eNOS [2]	Activity Remaining (%) nNOS [3]	Agmatinase activity remaining (%) [4]	Activity for inhibiting agmatinase, in words [4]	3H-MK801 Binding Remaining (%) [5]
O=[N+]([O-])c1cccc2cn[nH]c12 [7-nitroindazole, reference compound]	1%	0%	1%	–	–	–	–	–	–
Trans-4-Aminocyclohexyl guanidine	–	–	–	99.6%	69.4%	42.5%	97.0%	best activity	–
N=CNCCCNCCCNC=N [Bis (3-(N-Iminomethyl)-aminopropyl)amine]	–	–	–	65.2%	88.7%	23.5%	38.0%	–	99.7%
N=C(N)NCCCN [3-Aminopropylguanidine]	–	–	–	5.1%	60.8%	6.9%	3.1%	best activity	93.9%
N=C(N)NCCCCN.O=S(=O)(O)O [Agmatine sulfate, reference compound]	35.2%	97.4%	32.5%	–	–	–	37%	–	93.8%
